Experimental data from paper PMC12040169 (PLOS Biology, 2025).

experiment: in vitro; conditions: human, hela cells, % viability

**Q.** Which viability at 28.5 h, 10 µM does the source give for `Cc1cc(C)c(S(=O)(=O)NC(C)C)c(C)c1-n1cnnn1` [CBK270197] here?
**A.** 96.5%

**Q.** For `COc1ccccc1CN(C)C(C)C(=O)Nc1ccc(NC(C)=O)cc1` (centres unmarked) [CBK305873], which viability at 28.5 h, 10 µM is on record?
**A.** 100%

**Q.** With `COc1ccccc1CNc1ccc(S(N)(=O)=O)cc1` [CBK288476] as the compound, how does the viability at 28.5 h, 10 µM read?
**A.** 92.7%

**Q.** Which viability at 28.5 h, 10 µM does the source give for `CC[C@H]1C[N@@]2CC[C@H]1C[C@@H]2CNS(=O)(=O)c1ccc(NC(C)=O)cc1` [CBK288745] here?
**A.** 82.9%

**Q.** Which viability at 28.5 h, 10 µM does the source give for `COc1ccc(NC(=O)CCSCCC(=O)O)cc1S(=O)(=O)N1CCCCC1` [CBK296655] here?
**A.** 80.3%

**Q.** For `NS(=O)(=O)c1ccc(NC(=O)CCC(=O)O)cc1` [CBK261350], which viability at 28.5 h, 10 µM is on record?
**A.** 86.9%

**Q.** Which viability at 28.5 h, 10 µM does the source give for `O=C(c1ccccc1)N1CCN(Cc2cc(=O)n3ccsc3n2)CC1` [CBK306095] here?
**A.** 94.4%

**Q.** For `COc1ccc2[nH]c(=O)c(CN(CCCN3CCOCC3)C(=O)Nc3cccc(Cl)c3)cc2c1` [CBK135402], which viability at 28.5 h, 10 µM is on record?
**A.** 96.8%

**Q.** For `CCC(=O)N(C)[C@H]1CC[C@]2(CC1)CNC(=O)c1ccccc1O2` [CBK281683], which viability at 28.5 h, 10 µM is on record?
**A.** 87.5%

**Q.** With `O=C(Cn1cc(/C=C/c2[nH]c(=O)[nH]c(=O)c2[N+](=O)[O-])c2ccccc21)Nc1ccc2c(c1)OCO2` [CBK267036] as the compound, how does the viability at 28.5 h, 10 µM read?
**A.** 80.8%

**Q.** For `CN1CCN(c2ccc3ccn(S(=O)(=O)c4ccc([N+](=O)[O-])cc4)c3n2)CC1` [CBK070757C], which viability at 28.5 h, 10 µM is on record?
**A.** 104%

**Q.** Which viability at 28.5 h, 10 µM does the source give for `O=C(CN1CCC(c2ccccc2F)CC1)NCc1ccco1` [CBK283550] here?
**A.** 88.3%

**Q.** With `c1ccc(Cn2cc(-c3nccnc3OCCn3ccnc3)cn2)cc1` [CBK107102] as the compound, how does the viability at 28.5 h, 10 µM read?
**A.** 95.5%

**Q.** For `CC(C)(C)OC(=O)NCC1CCC(C(=O)O)CC1` (centres unmarked) [CBK278598], which viability at 28.5 h, 10 µM is on record?
**A.** 94.5%

**Q.** For `Brc1ccc(-n2c(SC/C=C/c3ccccc3)nnc2-c2ccncc2)cc1` [CBK266257], which viability at 28.5 h, 10 µM is on record?
**A.** 105%

**Q.** Which viability at 28.5 h, 10 µM does the source give for `Cc1ccc(-c2nccnc2OC2CCCCC2)c(C)c1` [CBK106983] here?
**A.** 94%

**Q.** With `N#Cc1ccc(-c2cnc(N)c(-c3ccc(C(=O)N4CCOCC4)cc3)n2)cc1` [CBK064067T] as the compound, how does the viability at 28.5 h, 10 µM read?
**A.** 116%

**Q.** With `Cc1nc(-c2ccc(CNS(=O)(=O)c3ccc(Cl)cc3)cc2)ccc1C(N)=O` [CBK285643] as the compound, how does the viability at 28.5 h, 10 µM read?
**A.** 90.5%

**Q.** With `CCOc1ccc(-c2n[nH]c(C(=O)N/N=C3/C(=O)Nc4ccccc43)c2C)cc1` [CBK262889] as the compound, how does the viability at 28.5 h, 10 µM read?
**A.** 99.6%

**Q.** With `Nc1ccc2ccc(-c3ccc4c(c3)CCO4)nc2n1` [CBK067625] as the compound, how does the viability at 28.5 h, 10 µM read?
**A.** 90%

**Q.** With `OC[C@H]1OCC[C@H]1O` [CBK201263] as the compound, how does the viability at 28.5 h, 10 µM read?
**A.** 113%

**Q.** Which viability at 28.5 h, 10 µM does the source give for `CCC(C)(C)c1ccc(S(=O)(=O)Nc2cc(Cl)ccc2O)cc1` [CBK045243] here?
**A.** 96%

**Q.** For `CC(C)N1CCCC[C@H]2CN(C(=O)C3OCCc4ccccc43)C[C@H]21` (some centres unmarked) [CBK285511], which viability at 28.5 h, 10 µM is on record?
**A.** 104%

**Q.** Which viability at 28.5 h, 10 µM does the source give for `O=C(OCC(=O)c1cccc2ccccc12)c1cc2ccccc2cc1O` [CBK265526] here?
**A.** 102%

**Q.** For `COCCNc1nc(-c2cncc(OC)c2)cnc1N` [CBK063606], which viability at 28.5 h, 10 µM is on record?
**A.** 103%

**Q.** For `Cc1ccc(NC(=O)CN2C(=O)c3ccccc3C2=O)c(O)c1` [CBK270028], which viability at 28.5 h, 10 µM is on record?
**A.** 88.2%

**Q.** With `CN1C(=O)c2ccccc2C(=O)[C@@]2(C)CN(Cc3ccccc3)C[C@@H]12` [CBK284692] as the compound, how does the viability at 28.5 h, 10 µM read?
**A.** 95.1%

**Q.** For `O=C(NNC(=O)c1cc2ccccc2cc1O)Nc1cccc([N+](=O)[O-])c1` [CBK266882], which viability at 28.5 h, 10 µM is on record?
**A.** 101%

**Q.** For `CCOC(=O)c1cccc(-n2ncc(-c3ccc(F)cc3)n2)c1` [CBK112908], which viability at 28.5 h, 10 µM is on record?
**A.** 94.1%

**Q.** For `CN1CCC(N2CCN(C(=O)NCCCN3CCCC3=O)CC2)CC1` [CBK156105], which viability at 28.5 h, 10 µM is on record?
**A.** 102%

**Q.** For `CCOc1ccc(-n2c(SCc3ccc(Br)cc3)nnc2-c2ccncc2)cc1` [CBK266017], which viability at 28.5 h, 10 µM is on record?
**A.** 103%

**Q.** With `O=C(Cn1nc(C(F)(F)F)c2c1CCC2)N1CCN(Cc2ccccc2)CC1` [CBK266113] as the compound, how does the viability at 28.5 h, 10 µM read?
**A.** 109%

**Q.** For `O=C(Cc1ccccc1)N1C[C@@H]2CCCCN(CC3CC3)[C@@H]2C1` [CBK285497], which viability at 28.5 h, 10 µM is on record?
**A.** 111%

**Q.** For `O=S(=O)(c1ccc(-c2ccccc2)cc1)N1CCCN(Cc2ccc(F)c(C(F)(F)F)c2)CC1` [CBK063115], which viability at 28.5 h, 10 µM is on record?
**A.** 98.9%

**Q.** With `O=C(c1ccco1)N1CCC(n2c(=O)oc3ccccc32)CC1` [CBK284350] as the compound, how does the viability at 28.5 h, 10 µM read?
**A.** 92.8%

**Q.** With `O=C(O)c1cc(NC(=O)c2cccc(Oc3ccc([N+](=O)[O-])cc3)c2)cc(C(=O)O)c1` [CBK263528] as the compound, how does the viability at 28.5 h, 10 µM read?
**A.** 80.8%

**Q.** Which viability at 28.5 h, 10 µM does the source give for `C[C@H](Nc1cncc(-c2cccs2)n1)c1ccccc1` [CBK065719] here?
**A.** 93.5%

**Q.** Which viability at 28.5 h, 10 µM does the source give for `COc1ccc(CCNCC2OCCCc3cc(OC)c(OC)cc32)cc1OC` (centres unmarked) [CBK012466C] here?
**A.** 94%

**Q.** Which viability at 28.5 h, 10 µM does the source give for `Cc1cc(C)n(CC(C)CNC(=O)Cc2csc(N3CCCC3=O)n2)n1` (centres unmarked) [CBK305624] here?
**A.** 91.2%

**Q.** Which viability at 28.5 h, 10 µM does the source give for `Cc1ncoc1C(=O)N1CCC2(C/C=C/C[C@H]3COCC[C@H]3NC(=O)CNC2=O)CC1` [CBK292086] here?
**A.** 89.3%

**Q.** For `O=C(COC(=O)c1cc(O)nc2ccccc12)c1ccccc1Cl` [CBK265524], which viability at 28.5 h, 10 µM is on record?
**A.** 95.2%

**Q.** Which viability at 28.5 h, 10 µM does the source give for `Cc1nn(C)c2ncc(C(=O)N(C)Cc3ccc(C(C)(C)C)cc3)cc12` [CBK305657] here?
**A.** 99.9%

same assay, conditions: human, hela cells, % viability, bulk resorufin, single well

**Q.** Which viability at 28.5 h, 10 µM does the source give for `CN(C)c1ccc(C(=O)N2CCC3(CC2)OCc2cc(Cl)ccc2O3)cc1` [CBK061067] here?
**A.** 87.8%

**Q.** For `CC(=O)Nc1ccc(OC(=O)N2CCCCC2)cc1` [CBK090124], which viability at 28.5 h, 10 µM is on record?
**A.** 99.1%
